Measured values: US9187471B2, “Pyrido [4,3-b] indole and pyrido [3,4-b] indole derivatives and methods of use” (Medivation Technologies, Inc., priority 2010, dated 2015)

What follows are molecules tested against T1, rat adrenergic α1A receptor (Rattus norvegicus, UniProt P43140) (assay: Adrenergic α1A radioligand binding ([3H]Prazosin)). Settings: read-out: Adrenergic (0.1 μM) a1A, percent inhibition of specific binding; compound at 0.1 μM; 0.25 nM [3H]Prazosin.
T1 construct: rat adrenergic α1A receptor obtained from Wistar Rat submaxillary glands; from tissue; host or cells: Wistar rat submaxillary glands
T1 sequence (P43140 1-466): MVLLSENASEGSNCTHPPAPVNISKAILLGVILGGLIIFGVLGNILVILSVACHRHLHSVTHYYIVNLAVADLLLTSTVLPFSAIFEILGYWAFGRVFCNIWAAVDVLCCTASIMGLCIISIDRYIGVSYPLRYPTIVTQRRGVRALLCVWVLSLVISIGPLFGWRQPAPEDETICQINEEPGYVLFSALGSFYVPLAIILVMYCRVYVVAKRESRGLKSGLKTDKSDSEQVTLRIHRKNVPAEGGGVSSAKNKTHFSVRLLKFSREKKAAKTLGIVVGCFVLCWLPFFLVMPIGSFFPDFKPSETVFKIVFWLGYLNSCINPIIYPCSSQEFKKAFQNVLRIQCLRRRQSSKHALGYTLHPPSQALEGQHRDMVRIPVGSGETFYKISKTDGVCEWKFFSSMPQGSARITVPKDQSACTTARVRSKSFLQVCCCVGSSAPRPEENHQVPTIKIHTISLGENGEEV
Procedure: To evaluate in radioligand binding assays the activity of compounds of the invention, rat adrenergic α1A receptor obtained from Wistar Rat submaxillary glands (Michel, A. et al, Br. J. Pharmacol. 98:883, 1989) in a modified Tris-HCl buffer (50 mM Tris-HCl buffer, pH 7.4, 0.5 mM EDTA) was used. Compounds of the invention were incubated with 0.25 nM [^3H]Prazosin for 60 min at 25° C. Non-specific binding was estimated in the presence of 10 μM phentolamine Receptor proteins were filtered and washed, the filters were then counted to determine [^3H]Prazosin specifically bound. […] Compounds of the invention were tested in this biochemical assay and percent inhibition of specific binding was determined.

SMILES | inhibition at 0.1 µM [%]
Cc1ccc2c(c1)c1c(n2-c2ccc(-c3c(C)noc3C)cn2)CCN(C)C1 [Compound No. 137, 4-(6-(2,8-dimethyl-3,4-dihydro-1H-pyrido[4,3-b]indol-5(2H)-yl)pyridin-3-yl)-3,5-dimethylisoxazole] | 17
Cc1ccc2c(c1)c1c(n2-c2ccc(-c3ccncc3)cn2)CCN(C)C1 [Compound No. 132, 5-(3,4′-bipyridin-6-yl)-2,8-dimethyl-2,3,4,5-tetrahydro-1H-pyrido[4,3-b]indole] | 11
Cc1cc(C)c2c(c1)c1c(n2-c2cccc(-c3ccncc3)c2)CCN(C)C1 [Compound 57, 2,6,8-trimethyl-5-(3-(pyridin-4-yl)phenyl)-2,3,4,5-tetrahydro-1H-pyrido[4,3-b]indole] | 3
CNC(=O)c1cccc(-c2cscc2-n2c3c(c4cc(C)ccc42)CN(C)CC3)c1 [Compound No. 154] | 28
CNC(=O)c1ccc(-c2cscc2-n2c3c(c4cc(C)ccc42)CN(C)CC3)cc1 [Compound No. 155] | 80
CC(=O)Nc1ccc(-c2cccc(-n3c4c(c5cc(C)ccc53)CN(C)CC4)c2)cn1 [Compound 45, N-(5-(3-(2,8-dimethyl-3,4-dihydro-1H-pyrido[4,3-b]indol-5(2H)-yl)phenyl)pyridin-2-yl)acetamide] | 13
Cc1ccc2c(c1)c1c(n2-c2ccccc2-c2ccnn2C)CCN(C)C1 [Compound 32] | 27
Cc1ccc2c(c1)c1c(n2-c2cccc(-c3ccc(S(C)(=O)=O)cc3)c2)CCN(C)C1 [Compound No. 131, 2,8-dimethyl-5-(4′-(methylsulfonyl)biphenyl-3-yl)-2,3,4,5-tetrahydro-1H-pyrido[4,3-b]indole] | 0
Cc1ccc2c(c1)c1c(n2-c2ccc(-c3ccc(F)cc3)cn2)CCN(C)C1 [Compound No. 140, 5-(5-(4-fluorophenyl)pyridin-2-yl)-2,8-dimethyl-2,3,4,5-tetrahydro-1H-pyrido[4,3-b]indole] | 31
CNC(=O)c1ccc(-c2cccc(-n3c4c(c5cc(C)ccc53)CN(C)CC4)c2)cn1 [Compound No. 75, 5-(3-(2,8-dimethyl-3,4-dihydro-1H-pyrido[4,3-b]indol-5(2H)-yl)phenyl)-N-methylpicolinamide] | 21
Cc1ccc2c(c1)c1c(n2-c2cccc(-c3ccc4c(ccn4C)c3)c2)CCN(C)C1 [Compound 53, 2,8-dimethyl-5-(3-(1-methyl-1H-indol-5-yl)phenyl)-2,3,4,5-tetrahydro-1H-pyrido[4,3-b]indole] | -11
Cc1ccc2c(c1)c1c(n2-c2cscc2-c2cc3ccccc3s2)CCN(C)C1 [Compound No. 151] | 64
Cc1ccc2c(c1)c1c(n2-c2cccc3ccncc23)CCN(C)C1 [Compound 58, 5-(isoquinolin-8-yl)-2,8-dimethyl-2,3,4,5-tetrahydro-1H-pyrido[4,3-b]indole] | 3
Cc1ccc2c(c1)c1c(n2-c2cccc(-c3ccnn3C)c2)CCN(C)C1 [Compound No. 66, 2,8-dimethyl-5-(3-(1-methyl-1H-pyrazol-5-yl)phenyl)-2,3,4,5-tetrahydro-1H-pyrido[4,3-b]indole] | 1
Cc1ccc2c(c1)c1c(n2-c2cccc(-c3ccc4[nH]cnc4c3)c2)CCN(C)C1 [Compound 54, 5-(3-(1H-benzo[d]imidazol-5-yl)phenyl)-2,8-dimethyl-2,3,4,5-tetrahydro-1H-pyrido[4,3-b]indole] | -7
Cc1ccc2c(c1)c1c(n2-c2cccc(-c3cnn(C)c3)c2)CCN(C)C1 [Compound 46, 2,8-dimethyl-5-(3-(1-methyl-1H-pyrazol-4-yl)phenyl)-2,3,4,5-tetrahydro-1H-pyrido[4,3-b]indole] | 16
CC(=O)Nc1ccc(-c2cscc2-n2c3c(c4cc(C)ccc42)CN(C)CC3)cn1 [Compound 56] | 49
Cc1ccc2c(c1)c1c(n2-c2cccc(-c3cccn3C)c2)CCN(C)C1 [Compound No. 69, 2,8-dimethyl-5-(3-(1-methyl-1H-pyrrol-2-yl)phenyl)-2,3,4,5-tetrahydro-1H-pyrido[4,3-b]indole] | 8
Cc1ccc2c(c1)c1c(n2-c2ccc3cnccc3c2)CCN(C)C1 [Compound 38] | 36
Cc1ccc2c(c1)c1c(n2-c2cscc2C(=O)N(C)C)CCN(C)C1 [Compound No. 152] | 6

SMILES | inhibition at 0.1 µM [%]
Cc1ccc2c(c1)c1c(n2-c2ccccc2-c2ccc(C)s2)CCN(C)C1 [Compound No. 81, 2,8-dimethyl-5-(2-(5-methylthiophen-2-yl)phenyl)-2,3,4,5-tetrahydro-1H-pyrido[4,3-b]indole] | 34
Cc1ccc2c(c1)c1c(n2-c2cccc(-c3ccc(O)nc3)c2)CCN(C)C1 [Compound 52, 5-(3-(2,8-dimethyl-3,4-dihydro-1H-pyrido[4,3-b]indol-5(2H)-yl)phenyl)pyridin-2-ol] | -1
Cc1ccc2c(c1)c1c(n2-c2cscc2-c2c(C)noc2C)CCN(C)C1 [Compound 62] | 9
Cc1ccc2c(c1)c1c(n2-c2ccc3nc(C)ccc3c2)CCN(C)C1 [Compound No. 157, 2,8-dimethyl-5-(2-methyl-quinolin-6-yl)-2,3,4,5-tetrahydro-1H-pyrido[4,3-b]indole] | 7
Cc1ccc2c(c1)c1c(n2-c2cccc(-c3sccc3C)c2)CCN(C)C1 [Compound 43, 2,8-dimethyl-5-(3-(3-methylthiophen-2-yl)phenyl)-2,3,4,5-tetrahydro-1H-pyrido[4,3-b]indole] | 13
CNC(=O)c1ccc(-c2cscc2-n2c3c(c4cc(C)ccc42)CN(C)CC3)cn1 [Compound No. 73] | 71
Cc1ccc2c(c1)c1c(n2-c2cccc(-c3c(C)noc3C)c2)CCN(C)C1 [Compound No. 65, 4-(3-(2,8-dimethyl-3,4-dihydro-1H-pyrido[4,3-b]indol-5(2H)-yl)phenyl)-3,5-dimethylisoxazole] | 1
CNC(=O)c1ccc(-c2ccccc2-n2c3c(c4cc(C)ccc42)CN(C)CC3)cc1 [Compound No. 72, 2′-(2,8-dimethyl-3,4-dihydro-1H-pyrido[4,3-b]indol-5(2H)-yl)-N-methylbiphenyl-4-carboxamide] | 36
Cc1csc(-c2ccccc2-n2c3c(c4cc(C)ccc42)CN(C)CC3)c1 [Compound 36] | -6
Cc1ccc2c(c1)c1c(n2-c2ccc3c(c2)CCN(C=O)C3)CCN(C)C1 [Compound No. 77, 6-(2,8-dimethyl-1,2,3,4-tetrahydro-pyrido[4,3-b]indol-5-yl)-3,4-dihydro-1H-isoquinoline-2-carbaldehyde] | 20
Cc1csc(-c2cccc(-n3c4c(c5cc(C)ccc53)CN(C)CC4)c2)c1 [Compound No. 63, 2,8-dimethyl-5-(3-(4-methylthiophen-2-yl)phenyl)-2,3,4,5-tetrahydro-1H-pyrido[4,3-b]indole] | -8
Cc1ccc2c(c1)c1c(n2-c2cscc2-c2cnn(C)c2)CCN(C)C1 [Compound 30] | 62
Cc1ccc2c(c1)c1c(n2-c2cccc(-c3cncc4ccccc34)c2)CCN(C)C1 [Compound No. 67, 5-(3-(isoquinolin-4-yl)phenyl)-2,8-dimethyl-2,3,4,5-tetrahydro-1H-pyrido[4,3-b]indole] | 1
Cc1ccc2c(c1)c1c(n2-c2ccc(-c3cccnc3)cn2)CCN(C)C1 [Compound No. 133, 5-(3,3′-bipyridin-6-yl)-2,8-dimethyl-2,3,4,5-tetrahydro-1H-pyrido[4,3-b]indole] | 21
CNC(=O)c1ccc(-c2ccccc2-n2c3c(c4cc(C)ccc42)CN(C)CC3)cn1 [Compound No. 71, 5-(2-(2,8-dimethyl-3,4-dihydro-1H-pyrido[4,3-b]indol-5(2H)-yl)phenyl)-N-methylpicolinamide] | 65
Cc1ccc2c(c1)c1c(n2-c2ccc(-c3ccc(S(N)(=O)=O)cc3)cn2)CCN(C)C1 [Compound No. 145, 4-(6-(2,8-dimethyl-3,4-dihydro-1H-pyrido[4,3-b]indol-5(2H)-yl)pyridin-3-yl)benzenesulfonamide] | 44
Cc1ccc2c(c1)c1c(n2-c2ccccc2-c2cnc(N(C)C)nc2)CCN(C)C1 [Compound 31] | 51
Cc1ccc2c(c1)c1c(n2-c2cccc(-c3ccc(C)nc3)c2)CCN(C)C1 [Compound 60, 2,8-dimethyl-5-(3-(6-methylpyridin-3-yl)phenyl)-2,3,4,5-tetrahydro-1H-pyrido[4,3-b]indole] | -2
Cc1ccc2c(c1)c1c(n2-c2cscc2-c2cccc3[nH]ncc23)CCN(C)C1 [Compound 41] | 59
Cc1ccc2c(c1)c1c(n2-c2ccccc2-c2c(C)noc2C)CCN(C)C1 [Compound No. 82, 4-(2-(2,8-dimethyl-3,4-dihydro-1H-pyrido[4,3-b]indol-5(2H)-yl)phenyl)-3,5-dimethylisoxazole] | 3
